Measurements from patent US20250114389A1, “NUCLEOSIDES AND NUCLEOTIDES ANALOGS AS ANTIVIRAL AGENTS” (Emory University, priority 2021, published 2025).
“And” between values parts separate entries of the source, which are not always exact repeats. Equal values may be shown once. Read-outs that look alike come from different tables or passages of the source.

Legend:
[1] = Cytotoxicity in Huh7 cells; type: cell-based; settings: human
in vitro [2] = settings: human, Caco-2
Omicron [3] = assay: microbe, parasite or virus in culture
SARS-CoV-2 [4] = assay: Anti-SARS-CoV-2 activity in Caco2 cells (virus yield inhibition)
[5] = type: in vitro ADME; settings: 10 μM
Experimental: An aliquot of 450 μL of human, mouse or hamster plasma were exposed to 10 μM of compound and incubated at 37° C. At 0, 5, 15, 30, 60, 90 and 120 min, 50 μL of plasma sample was mixed with 200 μL of ice-cold methanol (70%). 50 μL supernatant was dried and reconstituted in 100 μL H2O. Propantheline bromide was used as positive control. The supernatant was then subjected to LC-MS analysis (LC-MS condition: Instrument: Thermo TSQ Quantiva. Column: Kinetex […] (50×2.1 mm, […]). LC buffers: A): 0.1% formic acid, and B): acetonitrile. MRM methods: (269.2-112 positive), Indinavir (IS, 614.4-421.2 positive, IS)). The stability results are shown in FIGS. 2-4 (human plasma, mouse plasma and hamster plasma, respectively). Compound A is stable in human and mouse plasma up to 2 hours and stable up to […] in hamster plasma. Compound 23 was converted to compound A in hamster plasma in less than 5 min.

[6] = Cytotoxicity in CEM cells; type: cell-based, human; settings: human, CEM lymphoblastoid cells
Experimental: (§1) The toxicity of the compounds was assessed in Vero, human PBM, CEM (human lymphoblastoid), MT-2, and HepG2 cells, as described previously (see Schinazi R. F., Sommadossi J.-P., Saalmann V., Cannon D. L., Xie M.-Y., Hart G. C., Smith G. A. & Hahn E. F. Antimicrob. Agents Chemother. 1990, 34, 1061-67). Cycloheximide was included as positive cytotoxic control, and untreated cells exposed to solvent were included as negative controls. The cytotoxicity IC50 was obtained from the concentration-response curve using the median effective method described previously (see Chou T.-C. & Talalay P. Adv. Enzyme Regul. 1984, 22, 27-55; Belen'kii M. S. & Schinazi R. F. Antiviral Res. 1994, 25, 1-11).

Omicron [7] = assay: Anti-Omicron activity in Calu-3; type: cell-based, SARS-CoV-2; settings: Severe acute respiratory syndrome coronavirus 2
in vitro [8] = settings: human
[9] = Cytotoxicity in Vero cells; settings: African green monkey, Vero kidney cells
SARS-CoV-2 [10] = assay: Anti-SARS-CoV-2 activity in HAE-HBO (apical-out lung organoids); type: cell-based; settings: Severe acute respiratory syndrome coronavirus 2
[11] = Cytotoxicity in PBM cells; type: cell-based, human; settings: human
Experimental: as §1

[12] = Quantification of Compound A in mouse lung, brain and plasma; type: in vivo, CD-1 mice; settings: for concentration at 7 h / Brain concentration / Lung concentration: 7 h; for Plasma concentration, average / Plasma concentration: assuming density 1 g/mL
Experimental: CD-1 mice were treated with Compound A PO (30 mg/kg, 3 mice) or IV (15 mg/kg, 3 mice). Lung and brain samples were collected at 7 h.
Lung and brain samples were homogenized with 5× volume of 20% MeOH.
50 μL tissue homogenate was mixed with 250 μL MeOH (containing 40 nM indinavir as IS).
The supernatant was air-dried, then reconstituted in 150 μL of H2O.
Subjected to LC-MS analysis.
Calibration curve range: 30 nM to 30 μM.
Instrument: TSQ Quantiva, Column: Kinetex XB—C8 (50×2.1 mm, 2.6 μm)
LC buffers: A): 0.1% formic acid, and B): Acetonitrile
MRM methods: Compound A (269.2→112 positive), Indinavir (IS, 614.4→421.2 positive, IS)

[13] = Non-compartmental PK analysis of IV and oral Compound A in mice; type: in vivo; settings: for half-life: read-out: mean terminal t1/2 (converted)
Experimental: A study was performed to measure the concentration of Compound A ([…]) over time (hours) when administered orally at a concentration of 30 mg/kg (FIG. 8A) and intravenously at a concentration of 15 mg/kg (FIG. 8B).

SARS-CoV-2 [14] = assay: Anti-SARS-CoV-2 activity in Vero cells (virus yield inhibition); type: cell-based
SARS-CoV-2 [15] = settings: at 1 microM; FIGS. 1A-E (monocytes, epithelial cells, extracellular, total virus)
[16] = IV 15 mg/kg, individual mice, 15 mg/kg
[17] = PO 30 mg/kg, individual mice, 30 mg/kg

N#C[C@@]1(n2ccc(N)nc2=O)O[C@H](CO)[C@@H](O)[C@H]1O [Compound A, (2R,3R,4S,5R)-2-(4-amino-2-oxopyrimidin-1(2H)-yl)-3,4-dihydroxy-5-(hydroxymethyl)-tetrahydrofuran-2-carbonitrile]
CC50 [1]: > 100000 nM | CC50 (in vitro [2]): > 100000 nM | EC50 (Omicron [3]; Severe acute respiratory syndrome coronavirus 2, Caco-2, read-out: Anti-Omicron Activity (Caco-2) EC50): 1200 nM | EC90 (Omicron [3]; Severe acute respiratory syndrome coronavirus 2, Caco-2, read-out: Anti-Omicron Activity (Caco-2) EC90): 2200 nM | EC50 (SARS-CoV-2 [4]; Severe acute respiratory syndrome coronavirus 2, Caco-2, read-out: Anti-SARS-CoV-2 Activity (Caco2) EC50): 300 nM | EC90 (SARS-CoV-2 [4]; Severe acute respiratory syndrome coronavirus 2, Caco-2, read-out: Anti-SARS-CoV-2 Activity (Caco2) EC90): 1200 nM | stable in plasma up to ([5]; hamster): up to 24 h | stable in plasma up to ([5]; human): up to 2 hours | stable in plasma up to ([5]; mouse): up to 2 hours | CC50 [6]: 99000 nM | EC50 (Omicron [7]): 1800 to 2100 nM | EC90 (Omicron [7]): 4500 to 6200 nM | CC50 (in vitro [8]): > 100000 nM | CC50 [9]: > 100000 nM | EC50 (SARS-CoV-2 [10]): 300 nM | EC90 (SARS-CoV-2 [10]): 500 nM | CC50 [11]: 92000 nM | concentration at 7 h ([12]; CD-1, mouse, brain, iv, 15 mg/kg, IV 15 mg/kg, average of 3 mice, assuming tissue density 1 g/mL, read-out: Brain concentration, average): 270 nM | concentration at 7 h ([12]; CD-1, mouse, brain, iv, 15 mg/kg, IV 15 mg/kg, average of 3 mice, read-out: Brain concentration, average): 71.3 ng/g | concentration at 7 h ([12]; CD-1, mouse, brain, po, 30 mg/kg, PO 30 mg/kg, average of 3 mice, assuming tissue density 1 g/mL, read-out: Brain concentration, average): 200 nM | concentration at 7 h ([12]; CD-1, mouse, brain, po, 30 mg/kg, PO 30 mg/kg, average of 3 mice, read-out: Brain concentration, average): 53.1 ng/g | concentration at 7 h ([12]; CD-1, mouse, brain, po, 30 mg/kg, PO 30 mg/kg, individual mice, assuming tissue density 1 g/mL, read-out: Brain concentration): 280 nM | concentration at 7 h ([12]; CD-1, mouse, brain, po, 30 mg/kg, PO 30 mg/kg, individual mice, read-out: Brain concentration): 73.9 ng/g | concentration at 7 h ([12]; CD-1, mouse, lung, iv, 15 mg/kg, IV 15 mg/kg, average of 3 mice, assuming tissue density 1 g/mL, read-out: Lung concentration, average): 1200 nM | concentration at 7 h ([12]; CD-1, mouse, lung, iv, 15 mg/kg, IV 15 mg/kg, average of 3 mice, read-out: Lung concentration, average): 321 ng/g | concentration at 7 h ([12]; CD-1, mouse, lung, iv, 15 mg/kg, IV 15 mg/kg, individual mice, assuming tissue density 1 g/mL, read-out: Lung concentration): 830 nM | concentration at 7 h ([12]; CD-1, mouse, lung, iv, 15 mg/kg, IV 15 mg/kg, individual mice, read-out: Lung concentration): 223 ng/g | concentration at 7 h ([12]; CD-1, mouse, lung, po, 30 mg/kg, PO 30 mg/kg, average of 3 mice, assuming tissue density 1 g/mL, read-out: Lung concentration, average): 4010 nM | concentration at 7 h ([12]; CD-1, mouse, lung, po, 30 mg/kg, PO 30 mg/kg, average of 3 mice, read-out: Lung concentration, average): 1080 ng/g | Brain concentration [12, 16]: 39.3 ng/g and 56.9 ng/g and 117.8 ng/g | Lung concentration [12, 16]: 412.0 ng/g and 327.1 ng/g | concentration at 7 h ([12]; IV 15 mg/kg, individual mice, assuming tissue density 1 g/mL, 15 mg/kg, read-out: Brain concentration): 150 nM and 210 nM and 440 nM | concentration at 7 h ([12]; IV 15 mg/kg, individual mice, assuming tissue density 1 g/mL, 15 mg/kg, read-out: Lung concentration): 1540 nM and 1220 nM | Plasma concentration, average ([12]; IV 15 mg/kg, average of 3 mice): 520 nM | Plasma concentration [12, 16]: 370 nM and 610 nM and 590 nM | Brain concentration [12, 17]: 40.8 ng/g and 44.7 ng/g | Lung concentration [12, 17]: 881.8 ng/g and 730.8 ng/g and 1,615 ng/g | concentration at 7 h ([12]; PO 30 mg/kg, individual mice, assuming tissue density 1 g/mL, 30 mg/kg, read-out: Brain concentration): 150 nM and 170 nM | concentration at 7 h ([12]; PO 30 mg/kg, individual mice, assuming tissue density 1 g/mL, 30 mg/kg, read-out: Lung concentration): 3290 nM and 2720 nM and 6020 nM | Plasma concentration, average ([12]; PO 30 mg/kg, average of 3 mice): 3130 nM | Plasma concentration [12, 17]: 2090 nM and 2320 nM and 4990 nM | oral bioavailability [13]: excellent oral bioavailability | plasma concentration at start of decline ([13]; IV 15 mg/kg, FIG. 8B): around 10 μg/ml | Mean input time (MIT) into plasma of oral dose ([13]; MRTPO−MRTIV): 1.05 h | Ka ([13]; approximation assuming 1-compartment PK, ~1/MIT): ~0.95 h⁻¹ | half-life ([13]; mouse, plasma, 15 mg/kg, IV dose): 2.23 h | half-life ([13]; mouse, plasma, 30 mg/kg, oral dose): 2.47 h | concentration at 7 h ([13]; mouse, plasma, IV 15 mg/kg, over the course of 7 hours, FIG. 8B, read-out: plasma concentration after 7 hours): ~100 ng/mL | bioavailability ([13]; mouse, plasma, oral 30 mg/kg vs IV 15 mg/kg, excluding PO_m3): 99.5% | AUC ([13]; mouse, plasma, oral 30 mg/kg, excluding PO_m3 (possible outlier), read-out: mean oral AUCPO): 28300 ng·h/mL | mean oral CL ([13]; oral 30 mg/kg, excluding PO_m3): 1.06 L/hr per kg | MRTPO ([13]; oral dose): 2.65 h | EC50 (SARS-CoV-2 [14]; Severe acute respiratory syndrome coronavirus 2, Table 1, read-out: Anti-SARS-CoV-2 Activity (Vero) EC50): 600 nM | EC90 (SARS-CoV-2 [14]; Severe acute respiratory syndrome coronavirus 2, Table 1, read-out: Anti-SARS-CoV-2 Activity (Vero) EC90): 2300 nM | reduction of viral loads (SARS-CoV-2 [15]): 2-3 log
